Experiment [1] relates to Eotaxin-3 release in human whole blood stimulated with IL-4. Briefly: Human Whole Blood Eotaxin-3 Assay (IL-4 stimulated eotaxin-3 release). Conditions: IL-4 stimulation, 48 h, values given for compounds with >80% Emax, geometric mean. It counts as cell-based. The procedure, abridged: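 Eotaxin-3 (CCL26) release measured by MSD kit in plasma supernatant after 48 h IL-4 stimulation ([…]) of human whole blood. Compounds added in triplicate 4-fold dilutions 2 h before stimulation; 0.5% DMSO final, 37° C, 5% CO2.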

The next experiment deals with T1, STAT6 (Homo sapiens, UniProt P42226).
T1 construct: These cells express endogenous STAT6; host or cells: HeLa LgBiT clone 4.14
T1 sequence (P42226 1-847): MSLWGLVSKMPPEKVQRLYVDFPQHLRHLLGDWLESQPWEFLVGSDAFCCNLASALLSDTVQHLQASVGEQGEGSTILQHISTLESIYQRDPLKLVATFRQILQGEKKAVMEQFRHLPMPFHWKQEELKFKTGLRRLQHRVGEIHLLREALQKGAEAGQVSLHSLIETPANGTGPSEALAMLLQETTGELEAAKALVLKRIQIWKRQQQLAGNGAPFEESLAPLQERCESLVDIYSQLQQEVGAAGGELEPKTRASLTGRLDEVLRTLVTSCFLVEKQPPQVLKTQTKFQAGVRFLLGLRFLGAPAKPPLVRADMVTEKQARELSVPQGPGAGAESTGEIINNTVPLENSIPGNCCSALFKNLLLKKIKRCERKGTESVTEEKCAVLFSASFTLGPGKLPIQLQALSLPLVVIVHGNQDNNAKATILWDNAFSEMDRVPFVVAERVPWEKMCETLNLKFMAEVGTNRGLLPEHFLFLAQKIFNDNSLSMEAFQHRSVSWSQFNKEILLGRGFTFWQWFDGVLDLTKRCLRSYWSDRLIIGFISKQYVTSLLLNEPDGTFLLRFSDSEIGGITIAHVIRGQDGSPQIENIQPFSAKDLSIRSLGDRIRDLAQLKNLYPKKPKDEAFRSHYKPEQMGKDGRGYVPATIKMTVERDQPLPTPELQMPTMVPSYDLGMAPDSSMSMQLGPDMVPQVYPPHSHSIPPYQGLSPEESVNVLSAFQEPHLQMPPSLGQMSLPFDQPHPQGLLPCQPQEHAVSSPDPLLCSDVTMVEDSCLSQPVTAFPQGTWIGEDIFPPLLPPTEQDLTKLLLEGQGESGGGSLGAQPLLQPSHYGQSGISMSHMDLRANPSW
The experiment is described as follows: Stat6 Degrader Assay (HiBiT based, HeLa LgBiT clone 4.14). Conditions: HeLa LgBiT clone 4.14 HiBiT-STAT6, 4-24 h incubation; values given for compounds with >80% Emax; geometric mean; read-out: STAT6 degradation DC50. Format: cell-based. The procedure, abridged: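 Luminescence from HiBiT-STAT6 complementing stably expressed LgBiT in HeLa clone 4.14 reports remaining STAT6 protein. Cells (5000/well) exposed to compound for 4-24 h at 37° C; read 0.5 h after Nano-Glo addition. 100% degradation window set with 50 μM terfenadine; percent degradation plotted against concentration.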
For orientation: The HiBiT peptide binds its large partner to form an active luciferase.

Take `CNc1ccn(-c2ccnc3c2cc([C@H](C)N2CC=C(c4c(C)cc(C(=O)N5CCC(CN6CCN(Cc7cc8c(cc7F)N(C7CCC(=O)NC7=O)C(=O)C87CC7)C[C@@H]6C)CC5)cc4F)CC2)n3C)c(=O)c1` (stereo partly drawn) [Example 3u193, 3-(6′-fluoro-5′-(((S)-4-((1-(3-fluoro-5-methyl-4-(1-((S)-1-(1-methyl-4-(4-(methyl-amino)-2-oxopyridin-1 (2H)-yl)-1H-pyrrolo[2,3-b]pyridin-2-yl)ethyl)-1,2,3,6-tetrahydropyridin-4-yl)benzoyl)piperidin-4-yl)methyl)-3-methylpiperazin-1-yl)methyl)-2′-oxospiro[cyclopropane-1,3′-indolin]-1′-yl)piperidine-2,6-dione]: a half-maximal response in experiment [1] (EC50) required 2.4 nM. In addition, the half-maximal degradation concentration (DC50) (usually the concentration at which degradation of the target reaches its halfway point) on STAT6 is 1.9 nM.
For the molecule `CNc1cc(=O)n(-c2ccnc3c2cc([C@H](C)N2CC=C(c4c(C)cc(C(=O)N5CCC(CN6CCN(Cc7ccc8c(c7)C7(CC7)C(=O)N8[C@H]7CCC(=O)NC7=O)C[C@@H]6C)CC5)cc4F)CC2)n3C)cc1F` (single isomer, unassigned) [Example 3u99], in experiment [1], the EC50 (commonly the concentration needed to bring the measured effect to its halfway point) stood at 1.7 nM. Besides, the DC50 at STAT6 amounted to 1.1 nM.
`CNc1cc(=O)n(-c2ccnc3c2cc([C@H](C)N2CC=C(c4c(F)cc(C(=O)N5CCC(CN6CCN(Cc7ccc8c(c7)n(C)c(=O)n8[C@@H]7CCC(=O)NC7=O)CC6)CC5)cc4F)CC2)n3C)cc1F` (single isomer, unassigned) [Example 3u53] yielded an EC50 in experiment [1] of 1.1 nM. Also, on STAT6, the 50% degradation concentration (DC50) is 8.7 nM.
As for `CNc1cc(=O)n(-c2ccnc3c2cc([C@H](C)N2CC=C(c4c(C)cc(C(=O)N5CCC(CN6CCN(Cc7ccc8c(c7)C7(CC7)C(=O)N8[C@@H]7CCC(=O)NC7=O)CC6)CC5)cc4F)CC2)n3C)cc1F` (single isomer, unassigned) [Example 3u68], a half-maximal response in experiment [1] (EC50) required 7.8 nM. The DC50 on STAT6 was determined as 1 nM.
`CNc1ccn(-c2ccnc3c2cc(CN2CCC(c4c(F)cc(C(=O)N5CCC(CN6CCN(c7ccc8c(c7)C7(CC7)C(=O)N8C7CCC(=O)NC7=O)CC6)CC5)cc4F)CC2)n3C)c(=O)c1` (centres unmarked) [Example 3u149, 3-(5′-(4-((1-(3,5-difluoro-4-(1-((1-methyl-4-(4-(methylamino)-2-oxopyridin-1 (2H)-yl)-1H-pyrrolo[2,3-b]pyridin-2-yl)methyl)piperidin-4-yl)benzoyl)piperidin-4-yl)methyl)piperazin-1-yl)-2′-oxospiro[cyclopropane-1,3′-indolin]-1′-yl)piperidine-2,6-dione] registered an EC50 in experiment [1] of 27.6 nM. Further, the DC50 at STAT6 was 33.8 nM.
`CNc1cc(=O)n(-c2ccnc3c2cc(CN2CCC(c4c(F)cc(C(=O)N5CCC(CN6CCN(Cc7ccc8c(c7)n(C)c(=O)n8C7CCC(=O)NC7=O)C[C@@H]6C)CC5)cc4F)CC2)n3C)cc1F` (stereo partly drawn) [Example 3u60, 3-(5-(((S)-4-((1-(3,5-difluoro-4-(1-((4-(5-fluoro-4-(methylamino)-2-oxopyridin-1 (2H)-yl)-1-methyl-1H-pyrrolo[2,3-b]pyridin-2-yl)methyl)piperidin-4-yl)benzoyl)piperidin-4-yl)methyl)-3-methylpiperazin-1-yl)methyl)-3-methyl-2-oxo-2,3-dihydro-1H-benzo[d]imidazol-1-yl)piperidine-2,6-dione]: the EC50 in experiment [1] is 1.6 nM. Besides, the DC50 on STAT6 was 0.7 nM.
Regarding `CNc1cc(=O)n(-c2ccnc3c2cc([C@H](C)N2CC=C(c4c(C)cc(C(=O)N5CCC(CN6CCN(Cc7ccc8c(c7)n(C)c(=O)n8[C@@H]7CCC(=O)NC7=O)C[C@@H]6C)CC5)cc4F)CC2)n3C)cc1F` (single isomer, unassigned) [Example 3u92], the EC50 in experiment [1] was 1.8 nM. On STAT6, the DC50 amounted to 0.4 nM.
In experiment [1], `CNc1cc(=O)n(-c2ccnc3c2cc([C@H](C)N2CC=C(c4c(C)cc(C(=O)N(C)c5ccc(N6CCC(Cc7ccc8c(c7)n(C)c(=O)n8C7CCC(=O)NC7=O)CC6)nc5)cc4F)CC2)n3C)cc1F` (stereo partly drawn) [Example 3u241, N-(6-(4-((1-(2,6-dioxopiperidin-3-yl)-3-methyl-2-oxo-2,3-dihydro-1H-benzo[d]-imidazol-5-yl)methyl)piperidin-1-yl)pyridin-3-yl)-3-fluoro-4-(1-((S)-1-(4-(5-fluoro-4-(methylamino)-2-oxopyridin-1 (2H)-yl)-1-methyl-1H-pyrrolo[2,3-b]pyridin-2-yl)ethyl)-1,2,3,6-tetrahydropyridin-4-yl)-N,5-dimethylbenzamide] yielded a concentration giving a half-maximal response (EC50) of 0.2 nM. The DC50 at STAT6 came to 0.1 nM.
For `CNc1cc(=O)n(-c2ccnc3c2cc([C@H](C)N2CC=C(c4c(C)cc(C(=O)N5CCC(CN6CCN(Cc7ccc8c(c7)C7(CC7)C(=O)N8C7CCC(=O)NC7=O)CC6)CC5)cc4F)CC2)n3C)cc1F` (stereo partly drawn) [Example 3u66, 3-(5′-((4-((1-(3-fluoro-4-(1-((S)-1-(4-(5-fluoro-4-(methylamino)-2-oxopyridin-1 (2H)-yl)-1-methyl-1H-pyrrolo[2,3-b]pyridin-2-yl)ethyl)-1,2,3,6-tetrahydropyridin-4-yl)-5-methylbenzoyl)-piperidin-4-yl)methyl)piperazin-1-yl)methyl)-2′-oxospiro[cyclopropane-1,3′-indolin]-1′-yl)piperidine-2,6-dione], in that order: 4.3 nM and 1.6 nM.
The molecule `CNc1ccn(-c2ccnc3c2cc([C@H](C)N2CC=C(c4c(C)cc(C(=O)N5CCC(CN6CCN(Cc7cc8c(cc7F)n([C@H]7CCC(=O)NC7=O)c(=O)n8C)C[C@@H]6C)CC5)cc4F)CC2)n3C)c(=O)c1` (single isomer, unassigned) [Example 3u208] displayed a 50% effective concentration (EC50) in experiment [1] of 0.8 nM. Besides, at STAT6, the DC50 was determined as 0.6 nM.
Take `CNc1ccn(-c2ccnc3c2cc([C@H](C)N2CC=C(c4c(C)cc(C(=O)N5CCC(CN6CCN(c7cc8c(cc7F)n(C7CCC(=O)NC7=O)c(=O)n8C)CC6)CC5)cc4F)CC2)n3C)c(=O)n1` (stereo partly drawn) [Example 3u256, 3-(6-fluoro-5-(4-((1-(3-fluoro-5-methyl-4-(1-((S)-1-(1-methyl-4-(4-(methylamino)-2-oxopyrimidin-1 (2H)-yl)-1H-pyrrolo[2,3-b]pyridin-2-yl)ethyl)-1,2,3,6-tetrahydropyridin-4-yl)benzoyl)piperidin-4-yl)methyl)piperazin-1-yl)-3-methyl-2-oxo-2,3-dihydro-1H-benzo[d]imidazol-1-yl)piperidine-2,6-dione]: in experiment [1], the midpoint of the response, the EC50, lay at 0.8 nM. On STAT6, the 50% degradation concentration (DC50) was 2.5 nM.
Molecule `CNc1ccn(-c2ccnc3c2cc([C@H](C)N2CC=C(c4c(F)cc(C(=O)N5CCC(CN6CCN(Cc7ccc8c(c7)C(C)(C)C(=O)N8C7CCC(=O)NC7=O)C[C@@H]6C)CC5)cc4F)CC2)n3C)c(=O)c1` (stereo partly drawn) [Example 3u201, 3-(5-(((S)-4-((1-(3,5-difluoro-4-(1-((S)-1-(1-methyl-4-(4-(methylamino)-2-oxopyridin-1 (2H)-yl)-1H-pyrrolo[2,3-b]pyridin-2-yl)ethyl)-1,2,3,6-tetrahydropyridin-4-yl)benzoyl)piperidin-4-yl)-methyl)-3-methylpiperazin-1-yl)methyl)-3,3-dimethyl-2-oxoindolin-1-yl)piperidine-2,6-dione] gave a concentration giving a half-maximal response (EC50) in experiment [1] of 3.8 nM. The DC50 at STAT6 is 1.3 nM.
Consider `CNc1ccn(-c2ccnc3c2cc([C@H](C)N2CC=C(c4c(C)cc(C(=O)N5CCC(CN6CCN(Cc7cc8c(cc7F)N(C7CCC(=O)NC7=O)C(=O)C8(C)C)C[C@@H]6C)CC5)cc4F)CC2)n3C)c(=O)c1` (stereo partly drawn) [Example 3u181, 3-(6-fluoro-5-(((S)-4-((1-(3-fluoro-5-methyl-4-(1-((S)-1-(1-methyl-4-(4-(methyl-amino)-2-oxopyridin-1 (2H)-yl)-1H-pyrrolo[2,3-b]pyridin-2-yl)ethyl)-1,2,3,6-tetrahydropyridin-4-yl)-benzoyl)piperidin-4-yl)methyl)-3-methylpiperazin-1-yl)methyl)-3,3-dimethyl-2-oxoindolin-1-yl)-piperidine-2,6-dione], for which the EC50 in experiment [1] came out at 16.3 nM. Moreover, the DC50 on STAT6 worked out at 3.4 nM.

The record behind these values is US20250320206A1, “STAT6 DEGRADERS” (Gilead Sciences, Inc., priority 2024, published 2025).
